This is an account of results in ChEMBL document CHEMBL6074637, “Sidechain structure-activity relationships of cyclobutane-based small molecule αvβ3 antagonists” (RSC Med Chem, 2024).

SMILES strings stand for the structures.

One data set deals with SK-MEL-2. The data set is described as follows: Cytotoxicity against alphavbeta3-expressing human SK-MEL-2 cells assessed as reduction in cell viability measured after 96 hrs by MTT assay. In kind it is toxicity, cell-based. The conditions noted are these: sk-mel-2, 96 h.
Data set [1] in a line: Cytotoxicity against alphavbeta3-expressing human U-87 MG cells assessed as reduction in cell viability measured after 96 hrs by MTT assay. The class given is toxicity, cell-based. To be noted: u-87mg atcc.
The target in data set [2] is T1, Integrin alpha-V/beta-3 (Homo sapiens) (UniProt P05106+P06756). The data set is described as follows: Antagonist activity at alphavbeta3 integrin-mediated human SK-MEL-2 cell adhesion to fibronectin at 50 uM incubated with cells for 4 hrs followed by incubation with fibronectin in humidified chamber for 1 hr followed by incubation for overnight at 37 degC by MTT assay. In kind it is cell-based. Background: Formazan colour is commonly taken as a measure of viable cells.

Data set [3] has as its target T1, Integrin alpha-V/beta-3 (Homo sapiens). The data set is described as follows: Antagonist activity at alphavbeta3 integrin-mediated human SK-MEL-2 cell adhesion to fibronectin at 5 uM incubated with cells for 4 hrs followed by incubation with fibronectin in humidified chamber for 1 hr followed by incubation for overnight at 37 degC by MTT assay. The class given is cell-based. To be noted: filed as antagonist.

The nature of data set [4]: Toxicity in C57BL/6 immunocompetent mouse assessed as body weight upto 300 mg/kg, ip administered daily for 4 days. In kind it is organism-based. The conditions noted are these: in vivo, 96 h, time 4 day.

As for `CC(C)(C)OC(=O)C[C@H](NS(=O)(=O)c1ccccc1)C(=O)N[C@H]1C[C@@H](CCc2ccc3c(n2)NCCC3)C1`, in the data set on SK-MEL-2, the Activity entry was “Toxic”.

With `COC(=O)[C@H](CC(=O)N[C@H]1C[C@@H](CCc2ccc3c(n2)NCCC3)C1)NS(=O)(=O)c1c(C)cc(C)cc1C`, the Activity result (in the data set with SK-MEL-2; in data set [1]) was “Toxic” throughout.

In the case of `COC(=O)[C@H](CCNC(=O)[C@H]1C[C@@H](CCc2ccc3cccnc3n2)C1)NS(=O)(=O)c1c(C)cc(C)cc1C`, the Activity entry (with SK-MEL-2; in data set [1]) was “Toxic” in each case. Moreover, the inhibition (usually the share of the control response that was lost under treatment) in data set [2] is given as “Not determined; Greater Than 75% Inhibition In Initial Trial Experiment, Not Tested Further At This Concentration”.

`COC(=O)[C@H](CCNC(=O)[C@H]1C[C@@H](Cc2ccc3c(n2)NCCC3)C1)NS(=O)(=O)c1ccccc1`: the Activity result (with SK-MEL-2; in data set [1]) was “Toxic” in each case. Moreover, the inhibition result in data set [2] was “Not determined; Greater Than 75% Inhibition In Initial Trial Experiment, Not Tested Further At This Concentration”.

Take `COC(=O)[C@H](CC(=O)N[C@H]1C[C@@H](CCc2ccc3cccnc3n2)C1)NS(=O)(=O)c1c(C)cc(C)cc1C`: the Activity result (in the data set with SK-MEL-2; in data set [1]) was “Toxic” throughout.

As to `Cc1cc(C)c(S(=O)(=O)N[C@H]2CC(=O)N([C@H]3C[C@@H](CCc4ccc5c(n4)NCCC5)C3)C2=O)c(C)c1`, the Activity entry in the data set with SK-MEL-2 was “Toxic”.

On to `COC(=O)[C@H](CNC(=O)[C@H]1C[C@@H](CCc2ccc3c(n2)NCCC3)C1)NS(=O)(=O)c1ccccc1`, for which the inhibition in data set [3] is 59.5%.

As to `CNc1cccc(CC[C@H]2C[C@@H](C(=O)NC[C@H](NS(=O)(=O)c3ccccc3)C(=O)OC)C2)n1`, the Activity result (in the data set on SK-MEL-2; in data set [1]) was “Toxic” each time. Besides, the inhibition entry in data set [2] was “Not determined; Greater Than 75% Inhibition In Initial Trial Experiment, Not Tested Further At This Concentration”.

As to `COC(=O)[C@H](CCNC(=O)[C@H]1C[C@@H](Cc2ccc3c(n2)NCCC3)C1)NS(=O)(=O)c1c(C)cc(C)cc1C`, the Activity result (in the data set on SK-MEL-2; in data set [1]) was “Toxic” each time. For the same compound, the inhibition result in data set [2] is on record as “Not determined; Greater Than 75% Inhibition In Initial Trial Experiment, Not Tested Further At This Concentration”.

In the case of `COC(=O)[C@H](CCNC(=O)[C@H]1C[C@@H](CCc2ccc3c(n2)NCCC3)C1)NS(=O)(=O)c1c(C)cc(C)cc1C`, the Activity entry (in the data set on SK-MEL-2; in data set [1]) was “Toxic” throughout. In addition, in data set [2], the inhibition entry was “Not determined; Greater Than 75% Inhibition In Initial Trial Experiment, Not Tested Further At This Concentration”.

Take `COC(=O)[C@H](CCNC(=O)[C@H]1C[C@@H](Cc2ccc3cccnc3n2)C1)NS(=O)(=O)c1ccccc1`: the Activity result (in the data set with SK-MEL-2; in data set [1]) was “Toxic” each time.

`CNc1cccc(CC[C@H]2C[C@@H](C(=O)NC[C@H](NS(=O)(=O)c3c(C)cc(C)cc3C)C(=O)OC)C2)n1`: the figures for the Activity result (in the data set on SK-MEL-2; in data set [1]; in data set [4]) were “Toxic”, “Toxic” and “Non-toxic”, respectively.

Turning to `O=C1C[C@H](NS(=O)(=O)c2ccccc2)C(=O)N1[C@H]1C[C@@H](CCc2ccc3c(n2)NCCC3)C1`, the Activity entry (with SK-MEL-2; in data set [1]) was “Toxic” in each case.

For `O=C(O)C[C@H](NS(=O)(=O)c1ccccc1)C(=O)N[C@H]1C[C@@H](CCc2ccc3cccnc3n2)C1`, the Activity result in the data set on SK-MEL-2 is listed as “Toxic”.

For the compound `Cc1cc(C)c(S(=O)(=O)N[C@H]2CC(=O)N([C@H]3C[C@@H](CCc4ccc5cccnc5n4)C3)C2=O)c(C)c1`, in the data set on SK-MEL-2, the Activity entry was “Toxic”.

For the compound `COC(=O)[C@H](CC(=O)N[C@H]1C[C@@H](CCc2ccc3cccnc3n2)C1)NS(=O)(=O)c1ccccc1`, the Activity result (in the data set on SK-MEL-2; in data set [1]) was “Toxic” throughout.

As for `COC(=O)[C@H](CCNC(=O)[C@H]1C[C@@H](CCc2ccc3c(n2)NCCC3)C1)NS(=O)(=O)c1ccccc1`, in the data set on SK-MEL-2, the Activity entry is “Toxic”. In data set [2], the inhibition result is “Not determined; Greater Than 75% Inhibition In Initial Trial Experiment, Not Tested Further At This Concentration”.

For the compound `COC(=O)[C@H](CCNC(=O)[C@H]1C[C@@H](CCc2ccc3cccnc3n2)C1)NS(=O)(=O)c1ccccc1`, the Activity entry with SK-MEL-2 was “Toxic”. Besides, in data set [2], the inhibition result was “Not determined; Greater Than 75% Inhibition In Initial Trial Experiment, Not Tested Further At This Concentration”.

Consider `CC(C)(C)OC(=O)C[C@H](NS(=O)(=O)c1ccccc1)C(=O)N[C@H]1C[C@@H](CCc2ccc3cccnc3n2)C1`, for which the Activity result in the data set on SK-MEL-2 is “Toxic”. Also, in data set [2], the inhibition entry is on record as “Not determined; Greater Than 75% Inhibition In Initial Trial Experiment, Not Tested Further At This Concentration”.

`COC(=O)[C@H](CCNC(=O)[C@H]1C[C@@H](Cc2ccc3cccnc3n2)C1)NS(=O)(=O)c1c(C)cc(C)cc1C`: the Activity result in data set [1] was “Toxic”.

In the case of `O=C1C[C@H](NS(=O)(=O)c2ccccc2)C(=O)N1[C@H]1C[C@@H](CCc2ccc3cccnc3n2)C1`, the Activity entry (in the data set with SK-MEL-2; in data set [1]) was “Toxic” throughout.

As for `COC(=O)[C@H](CC(=O)N[C@H]1C[C@@H](CCc2ccc3c(n2)NCCC3)C1)NS(=O)(=O)c1ccccc1`, the Activity result (with SK-MEL-2; in data set [1]) was “Toxic” in each case.

Take `O=C(O)C[C@H](NS(=O)(=O)c1ccccc1)C(=O)N[C@H]1C[C@@H](CCc2ccc3c(n2)NCCC3)C1`: the Activity entry in the data set on SK-MEL-2 is on record as “Toxic”. Besides, the inhibition result in data set [2] was “Not determined; Greater Than 75% Inhibition In Initial Trial Experiment, Not Tested Further At This Concentration”.
